Results published in PMC7946228, “Discovery of novel candidates for anti-liposarcoma therapies by medium-scale high-throughput drug screening” (PLoS ONE, 2021).

Columns and labels:
Format in all cases: cell-based, human
liposarcoma cell lines [1] = assay: Cell cycle analysis of non-apoptotic cells (propidium iodide); details: growth arresting concentration, non-apoptotic fraction
Description: Cells were treated with drugs at the concentrations corresponding to previously established growth arresting concentrations and collected between 17 and 72h. Time of collection was individual for every drug/cell line combination; cells were collected after the beginning of complete growth inhibition (based on the growth curves data) but only when first signs of morphological change or cell death were visible (estimated microscopically approximately every 2h). After methanol fixation, cells were barcoded with different combinations of Pacific Blue/Pacific Orange dyes (Thermo Fisher Scientific) for different drug treatments. After mixing, cells were incubated in the TUNEL reaction mix for 1h at 37°C, according to the manufacturer’s instructions (Roche, Germany), stained with Streptavidin-Cy5 conjugated Ab and digested with RNAse. Cells were counter-stained with propidium iodide and analyzed using LSR II Flow Cytometer (BD Biosciences, NJ, USA. The data were processed with FlowJo Version 7.6.5 (Tree Star, Ashland, USA). The gating strategy is presented in Fig 3A. Cy-5 positive cells (as compared to control sample) were calculated as apoptotic. Cell cycles of non-apoptotic cells were analyzed using the built in FlowJo Cell Cycle Analysis module. Three independent biological replicates were done for each cell line/drug combination with exception of FU-DDLS-1 and T1000 –for which we only had two replicates available.

liposarcoma cell lines [2] = assay: Drug withdrawal, reversibility of growth arrest; details: for reversibility of growth inhibition after drug removal: 120h treatment at growth arresting concentration, then 72h without drug, except T778 with MLN9708
Description: The cellular proliferation rate was measured using the IncuCyte ZOOM live-cell imaging system (Essen Bioscience, Birmingham, UK) with the corresponding software application (version 2013BRev1). First the growth rate for each cell line was established to estimate the seeding numbers of cells corresponding to 15–30% of confluence at the start of the experiment and maximum 70% after 72h. The drug treatment was initiated approximately 18h after seeding. The proliferation rate was measured as cell confluence over time through the acquisition of photographs under phase contrast every third hour for the entire duration of the drug treatment. During the drug treatment, media were not changed, and cells were not split. The growth reducing drug concentration was defined as lowest drug concentration leading to significant decrease of cellular growth between 40 and 72h after start of treatment. To determine that concentration, plots were generated using IncuCyte software and differences in growth between 40 and 72h were calculated using least-square means with the ‘emmeans’ R package version 1.4.3 [25]. Growth arresting concentrations were defined as minimal drug concentration under which cell confluence between 96 and 120h increases by less than 3%. Though growth arrest occurred much earlier, these time points ensured that the growth arrest is a stable phenomenon. These growth arresting concentrations were used for drug withdrawal, apoptosis and cell cycle experiments. All the data were verified with the plots. The presented values correspond to median values from two (T449, all compounds) to five (all cell lines, triptolide) biological replicates.
An important prerequisite for clinical implementation of these compounds as treatment for liposarcoma is irreversibility of the induced growth inhibition. We thus assessed if the drugs were only transiently cytostatic, which is especially important in case of the compounds that seem to work mainly via cell cycle arrest (APO866, GSK2126458). Cells were treated with the compounds at growth arresting concentrations for 120h after which the compounds were removed and cell numbers were monitored for another 72h. […] To irreversibly arrest cell proliferation GSK2126458 had to be used at 10x higher concentrations (100x for GOT3) (S5 Fig). Those concentrations are above physiological ranges (see Table 2), and these effects should be accounted for assessing use of GSK2126458 in clinic.

[3] = system: cancer cells isolated from primary liposarcoma tumors; assay: Ex vivo cultures of patient-derived tumor cells, ATP viability 72h; details: 1 nM to 10 μM, patients 1-3
Description: 349 compounds from anti-cancer Selleck Chemical library were pre-aliquoted at five concentrations, increasing in 10-fold steps from 1 nM to 10 μM, in 384-well plates using an Echo Liquid Handler. Each plate also contained positive (benzethonium chloride, BzCl) and negative (DMSO only) controls. Additional drugs were added manually to the same plates at the same concentration range. Cells were seeded directly into the plates containing the drugs. After 72h viability was assessed through levels of ATP, with Cell Titer Glow assay (Promega, Wisconsin, United States) and luminescence quantified using a […]. Data from drug screens were analyzed with R version 3.4.0 (R_Core_Team, 2017) normalized to median positive (BzCl) and median negative (DMSO) controls using formula: (drug-BzCl)/(DMSO–BzCl), with total viability calculated as the area under the curve over all five drug concentrations, adjusted using qualitatively constrained quantile smoothing splines, R package ‘cobs’ version 1.3–3 [22]. The raw values of positive (BzCl) and median negative (DMSO) controls on each assay plate were aggregated and used to calculate z’-factors, as a measure of assay performance and data quality, with a z’-factor > 0.5 representing acceptable data. For two cases where the z’-factor was below 0.5, strictly standardized mean difference (SSMD) was additionally calculated, giving the population value (β) of SSMD -4 and -5, respectively, indicating good quality. Data visualization was done in R using ‘ComplexHeatmaps’ package version 1.20.0 [24]. The same assay was also used when assessing viability of non-tumor cells and tumor explants.
Explants of tumors from patients with liposarcoma were made using Tumor Dissociation Kit and gentleMACS Dissociator (both Miltenyi Biotec, Germany) according to the manufacturer’s instructions. […]
Next, we tested the selected candidate drugs on cancer cells isolated from primary liposarcoma tumors that were available during the study (Fig 5, bottom panel). […] Cell viability was assessed by measuring ATP after 72h. […]

SMILES | cell cycle phase in which cells are blocked (liposarcoma cell lines [1]) | reversibility of growth inhibition after drug removal (liposarcoma cell lines [2]) | efficacy against primary tumor cells from liposarcoma patients [3] | concentration needed for irreversible growth arrest relative to growth arresting concentration (liposarcoma cell lines [2]; cell lines that resumed growth, 100x for GOT3 with GSK2126458) [x higher]
O=C(/C=C/c1cccnc1)NCCCCC1CCN(C(=O)c2ccccc2)CC1 [APO866] | less specific arrest | irreversibly inhibited growth of all tested cell lines | most varied | 
Cn1cc(CNCC2CCN(c3ncc(C(=O)NO)cn3)CC2)c2ccccc21 [JNJ-26481585] | G1 and G2 phases | irreversibly inhibited growth of all tested cell lines |  | 
CC(C)[C@]12O[C@H]1[C@@H]1O[C@]13[C@]1(O[C@H]1C[C@H]1C4=C(CC[C@@]13C)C(=O)OC4)[C@@H]2O [Triptolide] | S phase | irreversibly inhibited growth of all tested cell lines | most efficient for all the samples | 
COCCn1c2c([n+](Cc3cnccn3)c1C)C(=O)c1ccccc1C2=O [YM155] | less specific arrest | Some cell lines such as LPS141, T778 and SA-4 resumed growth | good response | 10
